Results as given in patent US8901138B2, “Sulfoximine substituted quinazolines for pharmaceutical compositions” (Boehringer Ingelheim International GmbH, priority 2012, dated 2014).

What was measured:
MNK2a = target: T1, MNK2a (Homo sapiens, UniProt Q9HBH9); test: MNK2a in vitro kinase assay (assay 1), ADP-Glo; assay type: biochemical; settings: preactivated GST-MNK2a, 20 μM ATP, read-out: MNK2 IC50
T1 construct: made in house
Protocol: A. MNK2a In Vitro Kinase Assay (Assay 1)
ASSAY SETUP: The inhibition of kinase activity of MNK2a was assessed using preactivated GST-MNK2a. The white, 384-well OptiPlate F plates were purchased from Perkin Elmer. The ADP-Glo Kinase Assay (including ultra pure ATP) was purchased from Promega (V9103). Activated MNK2a was obtained as described in WO2011/104340. The unlabeled eIF4E peptide (NH2-[…]—CONH2) (SEQ ID NO: 1), differing from Seq. ID No. 5 of WO 2011/104340 by the C-terminal —CONH2 group, was purchased from Thermo Fisher Scientific. All other materials were of highest grade commercially available. Compounds are tested in either serial dilutions or single dose concentrations. The compound stock solutions are 10 mM in 100% DMSO The serial compound dilutions are prepared in 100% DMSO followed by 1:27.3 intermediate dilution in assay buffer. The final DMSO concentration in assay will be <3%. In the 384-well plates 3 μl of test compound from the intermediate dilution is mixed with 4 μl of the activated MNK2 enzyme (final concentration of 10 nM) and 4 μl of the peptide (final concentration of 25 μM)/ultra pure ATP (final concentration of 20 μM), all dissolved in assay buffer. This step is followed by an incubation time of 90 min, then 10 μl of ADP Glo reagent are added, followed by 40 min of incubation. Then 20 μl of kinase detection reagent are admixed. The plates are sealed and after an incubation period of 30 min, the luminescence signal is measured in an Envision reader to determine the amount of produced ADP. All incubation steps are performed at room temperature. The assay buffer consists of 20 mM HEPES, 2 mM DTT, 0.01% BSA, 20 mM MgCl2 and 0.1% Pluronic F-127.
Each assay microtiter plate contains wells with vehicle controls instead of compound (1% DMSO in water) as reference for the high signal (100% CTL, high signal), and wells containing a potent MNK2 inhibitor (final 20 μM, 1% DMSO) as reference for low signal (0% CTL, low signal).
The luminescent signal generated is proportional to the ADP concentration produced and is correlated with activated MNK2 activity. The analysis of the data is performed by the calculation of the percentage of ATP consumption of activated MNK2 in the presence of the test compound compared to the consumption of ATP in the presence of activated MNK2 without compound. (RLU(sample)−RLU(low control))*100/(RLU(high value)−RLU(low control)) [RLU=relative luminescence units]
An inhibitor of the MNK2 enzyme will give values between 100% CTL (no inhibition) and 0% CTL (complete inhibition). Values of more than 100% CTL are normally related to compound/sample specific physico-chemical properties (e.g. solubility, light absorbance, fluorescence).
IC50 values based on dose response curves are calculated with the AssayExplorer software.

MNK1a = MNK1a (Homo sapiens, UniProt Q9BUB5); test: MNK1 in vitro kinase assay (assay 2), Z'-LYTE; assay type: biochemical; settings: for inhibition at 1 µM: compound concentration of 1 μM; for IC50: pre-activated GST-MNK1a
Source text: B. MNK1 In Vitro Kinase Assay (Assay 2)
MNK1 Data can be obtained from the MNK1 Z′-LYTE® assay. The MNK1 Z′-LYTE® screening protocol and assay conditions are also described on www.invitrogen.com.
The assay is described as follows:
The Z′-LYTE® biochemical assay employs a fluorescence-based, coupled-enzyme format and is based on the differential sensitivity of phosphorylated and non-phosphorylated peptides to proteolytic cleavage. The peptide substrate is labeled with two fluorophores—one at each end—that make up a FRET pair.
In the primary reaction, the kinase transfers the gamma-phosphate of ATP to a single tyrosine, serine or threonine residue in a synthetic FRET-peptide. In the secondary reaction, a site-specific protease recognizes and cleaves non-phosphorylated FRET-peptides. Phosphorylation of FRET-peptides suppresses cleavage by the Development Reagent. Cleavage disrupts FRET between the donor (i.e., coumarin) and acceptor (i.e., fluorescein) fluorophores on the FRET-peptide, whereas uncleaved, phosphorylated FRET-peptides maintain FRET. A ratiometric method, which calculates the ratio (the Emission Ratio) of donor emission to acceptor emission after excitation of the donor fluorophore at 400 nm, is used to quantitate reaction progress, as shown in the equation below. Emission Ratio=Coumarin Emission(445 nm)/Fluorescein Emission(520 nm)
ASSAY SETUP: The inhibition of kinase activity of MNK1a was assessed using pre-activated GST-MNK1a. The 2×MKNK1 (MNK1) mixture is prepared in 50 mM HEPES pH 7.5, 0.01% BRIJ-35, 10 mM MgCl2, 4 mM MnCl2, 1 mM EGTA, 2 mM DTT. The final 10 μL Kinase Reaction consists of 13.5-54 ng MKNK1 (MNK1) and 2 μM Ser/Thr 07 in 50 mM HEPES pH 7.5, 0.01% BRIJ-35, 10 mM MgCl2, 2 mM MnCl2, 1 mM EGTA, 1 mM DTT. After the 1 hour Kinase Reaction incubation, 5 μL of a 1:32768 dilution of Development Reagent A is added.
The Test Compounds are screened in 1% DMSO (final) in the well.
All Peptide/Kinase Mixtures are diluted to a 2× working concentration in the MNK1 Kinase Buffer.
All ATP Solutions are diluted to a 4× working concentration in Kinase Buffer (50 mM HEPES pH 7.5, 0.01% BRIJ-35, 10 mM MgCl2, 1 mM EGTA).
Development Reagent Solution:
The Development Reagent is diluted in Development Buffer
Bar-coded Corning, low volume NBS, 384-well plate (Corning Cat. #3676)
1. 2.5 μL-4× Test Compound
2. 5 μL-2× Peptide/Kinase Mixture
5. 60-minute Kinase Reaction incubation at room temperature
6. 5 μL-Development Reagent Solution
8. 60-minute Development Reaction incubation at room temperature
9. Read on fluorescence plate reader and analyze the data
The following equations are used for each set of data points: […]
Correction for Background Fluorescence: FSample−FITCFl Ctl
Emission Ratio (using values corrected for background fluorescence):Coumarin
Emission (445 nm)/Fluorescein Emission (520 nm)
% Phosphorylation (% Phos): 1−((Emission Ratio×F100%)−C100%)/((C0%−C100%)+[Emission Ratio×(F100%−F0%)])*100 % Inhibition: 1−(% PhosSample/% Phos0% Inhibition Ctl)*100 FI=Fluorescence Intensity C100%=Average Coumarin emission signal of the 100% Phos. Control C0%=Average Coumarin emission signal of the 0% Phos. Control F100%=Average Fluorescein emission signal of the 100% Phos. Control F0%=Average Fluorescein emission signal of the 0% Phos. Control Graphing Software
SelectScreen® Kinase Profiling Service uses XLfit from IDBS. The dose response curve is curve fit to model number 205 (sigmoidal dose-response model).

Sequence of MNK1a (Q9BUB5 1-424 isoform Q9BUB5-2): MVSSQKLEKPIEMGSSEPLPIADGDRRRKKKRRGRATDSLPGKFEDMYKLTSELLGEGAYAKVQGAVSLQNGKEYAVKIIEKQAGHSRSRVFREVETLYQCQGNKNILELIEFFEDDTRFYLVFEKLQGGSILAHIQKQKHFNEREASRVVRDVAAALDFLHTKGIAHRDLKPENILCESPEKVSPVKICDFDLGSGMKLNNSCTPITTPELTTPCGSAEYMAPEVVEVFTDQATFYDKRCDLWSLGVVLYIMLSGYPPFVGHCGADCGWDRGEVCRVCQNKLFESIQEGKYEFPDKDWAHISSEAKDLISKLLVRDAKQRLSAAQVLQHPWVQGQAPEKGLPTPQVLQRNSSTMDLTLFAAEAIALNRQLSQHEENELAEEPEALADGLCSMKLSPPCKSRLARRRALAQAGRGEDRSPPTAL
T1 sequence (Q9HBH9 whole entry): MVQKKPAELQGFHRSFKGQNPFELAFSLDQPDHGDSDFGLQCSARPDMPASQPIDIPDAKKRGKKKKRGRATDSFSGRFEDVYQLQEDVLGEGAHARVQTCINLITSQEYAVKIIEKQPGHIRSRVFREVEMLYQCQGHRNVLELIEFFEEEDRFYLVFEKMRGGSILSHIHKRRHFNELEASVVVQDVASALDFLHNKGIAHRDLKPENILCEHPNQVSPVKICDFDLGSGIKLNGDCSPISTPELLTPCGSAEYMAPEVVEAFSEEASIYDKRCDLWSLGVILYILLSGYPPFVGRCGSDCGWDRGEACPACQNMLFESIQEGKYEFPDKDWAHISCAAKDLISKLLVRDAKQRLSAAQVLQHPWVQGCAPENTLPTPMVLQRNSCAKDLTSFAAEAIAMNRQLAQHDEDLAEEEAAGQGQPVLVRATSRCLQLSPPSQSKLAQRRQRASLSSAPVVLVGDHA

| IC50 (MNK2a) | inhibition at 1 µM (MNK1a) | IC50 (MNK1a) | SMILES |
| --- | --- | --- | --- |
| 1 nM | 100% |  | Cc1cc(N=S2(=O)CCCC2)cc2ncnc(Nc3ccc(F)cc3O[C@@H]3CO[C@@H]4CCC[C@@H]43)c12 [Example 2.123] |
| 164 nM | 55% |  | CC(C)(C)OC(=O)N1CCC[C@@H](Oc2ncccc2Nc2ncnc3cc(N=S(C)(C)=O)cc(F)c23)C1 [Example 2.77] |
| 2 nM | 98% |  | Cc1cc(N=S(C)(C)=O)cc2ncnc(Nc3ccc(F)cc3O[C@@H]3CO[C@@H]4CCC[C@@H]43)c12 [Example 2.122] |
| 1 nM | 98% |  | Cc1cc(N=S2(=O)CCC(O)CC2)cc2ncnc(Nc3ccc(F)cc3O[C@@H]3CO[C@@H]4CCO[C@@H]43)c12 (stereo partly drawn) [Example 2.94] |
| 4 nM | 94% |  | CS(C)(=O)=Nc1cc(OC(F)F)c2c(Nc3ccc(F)cc3O[C@H]3CCOC3)ncnc2c1 [Example 1.23] |
| 106 nM | 42% |  | CS(C)(=O)=Nc1cc(N2CCC2)c2c(Nc3ccc(F)cc3O[C@H]3CCOC3)ncnc2c1 [Example 1.19] |
| 48 nM | 66% |  | CS(C)(=O)=Nc1cc(OC2CC2)c2c(Nc3ccc(F)cc3O[C@H]3CCOC3)ncnc2c1 [Example 1.25] |
| 1 nM |  | 11 nM | O=S1(=Nc2cc(Cl)c3c(Nc4ccc(F)cc4O[C@@H]4CO[C@@H]5CCO[C@@H]54)ncnc3c2)CCC1 [Example 1.27] |
| 4 nM | 95% |  | Cc1cc(N=S(C)(=O)C(C)C)cc2ncnc(Nc3ccc(F)cc3O[C@H]3CCOC3)c12 (stereo partly drawn) [Example 2.104] |
| 4 nM | 91% |  | CO[C@H]1CC[C@H](Oc2cc(F)ccc2Nc2ncnc3cc(N=S4(=O)CCOCC4)cc(C)c23)CC1 [Example 2.17] |
| 10 nM | 93% |  | Cc1cc(N=S(C)(C)=O)cc2ncnc(Nc3ccc(F)cc3OC3COC3)c12 [Example 2.126] |
| 6 nM | 89% |  | Cc1cc(N=S(C)(=O)C(C)(C)C)cc2ncnc(Nc3ccc(F)cc3O[C@H]3CCOC3)c12 (stereo partly drawn) [Example 2.112] |
| 2 nM | 98% |  | CCS(C)(=O)=Nc1cc(C)c2c(Nc3ccc(F)cc3OC3CCOC3)ncnc2c1 (single isomer, unassigned) [Example 7.13] |
| 8 nM | 89% |  | Cc1cc(N=S(C)(C)=O)cc2ncnc(Nc3cccnc3O[C@@H]3CCCN(CCO)C3)c12 [Example 6.10] |
| 7 nM | 93% |  | Cc1cc(N=S(C)(C)=O)cc2ncnc(Nc3cccnc3OC3COCCOC3)c12 [Example 2.91] |
| 5 nM | 86% |  | CO[C@H]1CC[C@H](Oc2cc(F)ccc2Nc2ncnc3cc(N=S4(=O)CCN(C)CC4)cc(C)c23)CC1 [Example 7.1] |

| IC50 (MNK2a) | inhibition at 1 µM (MNK1a) | IC50 (MNK1a) | SMILES |
| --- | --- | --- | --- |
| 2 nM | 98% |  | Cc1cc(N=S(C)(C)=O)cc2ncnc(Nc3ccc(F)cc3O[C@@H]3CO[C@H]4[C@@H]3OC[C@@H]4C#N)c12 [Example 2.61] |
| 9 nM | 52% |  | CO[C@H]1CC[C@H](Oc2cc(F)ccc2Nc2ncnc3cc(N=S4(=O)CCN(C(=O)OC(C)(C)C)CC4)cc(C)c23)CC1 [Example 2.14] |
| 2 nM |  | 110 nM | Cc1cc(N=S(C)(C)=O)cc2ncnc(Nc3ccc(F)cc3OC3(C)CC3C)c12 (stereo not drawn) [Example 1.33] |
| 7 nM | 72% |  | CC(C)(C)OC(=O)N[C@H]1CC[C@H](Oc2ncccc2Nc2ncnc3cc(N=S(C)(C)=O)cc(F)c23)CC1 [Example 2.15] |
| 52 nM | 66% |  | Cc1cc(N=S(C)(C)=O)cc2ncnc(Nc3cccnc3O[C@@H]3CCCN(C(=O)OC(C)(C)C)C3)c12 [Example 2.23] |
| 8 nM | 85% |  | CS(C)(=O)=Nc1cc(F)c2c(Nc3ccc(F)cc3O[C@@H]3CCCN(CCO)C3)ncnc2c1 [Example 6.1] |
| 4 nM | 92% |  | Cc1cc(N=S(C)(C)=O)cc2ncnc(Nc3cccnc3OC3CCOCC3)c12 [Example 2.6] |
| 1 nM | 98% |  | Cc1cc(N=S2(=O)CCC2)cc2ncnc(Nc3ccc(F)cc3O[C@@H]3CO[C@@H]4CCO[C@@H]43)c12 [Example 2.106] |
| 4 nM | 98% |  | Cc1cc(N=S(C)(C)=O)cc2ncnc(Nc3ccc(F)cc3O[C@@H]3CO[C@H]4[C@@H]3OC[C@H]4OC(C)C)c12 [Example 2.28] |
| 31 nM | 72% |  | CS(C)(=O)=Nc1cc(F)c2c(Nc3cccnc3O[C@@H]3CCCN(CCO)C3)ncnc2c1 [Example 6.11] |
| 2 nM | 100% | 56 nM | Cc1cc(N=S2(=O)CCCC2)cc2ncnc(Nc3ccc(F)cc3O[C@H]3CC[C@H](O)CC3)c12 [Example 2.40] |
| 13 nM | 94% |  | CS(C)(=O)=Nc1cc(F)c2c(Nc3cccnc3O[C@@H]3CCOC3)ncnc2c1 [Example 2.53] |
| 2 nM |  | 25 nM | CO[C@@H]1CO[C@H]2[C@@H]1OC[C@H]2Oc1cc(F)ccc1Nc1ncnc2cc(N=S(C)(C)=O)cc(OCCF)c12 [Example 5.6] |
| 2 nM | 96% |  | Cc1cc(N=S(C)(=O)C2CC2)cc2ncnc(Nc3ccc(F)cc3O[C@@H]3CO[C@@H]4CCO[C@@H]43)c12 (stereo partly drawn) [Example 2.114] |
| 1 nM |  | 18 nM | CO[C@@H]1CO[C@H]2[C@@H]1OC[C@H]2Oc1cc(F)ccc1Nc1ncnc2cc(N=S(C)(C)=O)cc(OC(F)F)c12 [Example 1.24] |
